Patent publication US20110038867A1, “REMEDIES FOR PEMPHIGUS CONTAINING ANTI FAS LIGAND ANTIBODIES” (priority 2007, published 2011)
Peptide text beside a SMILES is read from it. * marks the point of attachment. Cbz = O=C(OCc1ccccc1)*; CH2F = FC*

B1: FasL: recombinant Fas ligand added to keratinocyte cultures (protein, UniProt P48023 130-281, looked up)
Tumor necrosis factor ligand …: QIGHPSPPPEKKELRKVAHLTGKSNSRSMPLEWEDTYGIVLLSGVKYKKGGLVINETGLYFVYSKVYFRGQSCNNLPLSHKVYMRNSKYPQDLVMMEGKMMSYCTTGQMWARSSYLGAVFNLTSADHLYVNVSELSLVNFEESQTFFGLYKL

What was measured:
human keratinocytes = test: Pemphigus sera-induced keratinocyte apoptosis, TUNEL staining; assay type: cell-based; details: sera pretreated with anti-FasL neutralizing antibody (2.5 mg per ml for 30 min) or Z-IETD-FMK (100 μM for 30 min); FIG. 6
Method: As apoptotic keratinocytes are abundantly expressed in pemphigus, we wanted to explore whether pemphigus sera are capable of inducing apoptosis in normal human keratinocytes. To this purpose, keratinocytes were plated in chamber slides and cultured in serum-free medium (KGM) up to preconfluence. Cells were then cultured in keratinocyte basal medium and treated for 48 h with the addition of 25% serum from either untreated patients or patients treated with systemic corticosteroids. Sera from healthy subjects were used as controls. Apoptosis was evaluated by TUNEL staining in situ. Approximately 100 cells were evaluated, in randomly selected fields, and the percentage of TUNEL-positive cells was counted.
FasL is one of the major triggers of the caspase-8 activated extrinsic apoptotic pathway. Therefore, we wanted to evaluate whether this pathway plays a role in pemphigus apoptosis. To this purpose, patient sera were pretreated with anti-FasL neutralizing antibody or caspase-8 inhibitor, and added to keratinocyte cultures. Keratinocytes were cultured in KGM and treated with pemphigus sera or with sera from untreated patients. Sera were pretreated with anti-FasL neutralizing antibody (2.5 mg per ml for 30 min) or caspase-8 inhibitor Z-IETD-FMK (100 μM for 30 min). Apoptosis was evaluated by TUNEL staining.

keratinocytes [1] = test: Pemphigus sera-induced Dsg3 cleavage and caspase-8 activation in confluent keratinocytes, Western blotting; assay type: cell-based, human; details: pretreatment with Z-IETD-FMK (100 μM for 30 min) or NOK2 15 μg/ml, then sera 72 hrs; FIG. 12A
Method: To investigate whether the extrinsic apoptotic pathway is responsible for dsg cleavage, we pretreated confluent keratinocytes with caspase-8 inhibitor Z-IETD-FMK (100 μM for 30 min) or with anti-FasL (NOK2, 15 μg/ml) Ab. Then cells were incubated for 72 hrs with healthy or untreated pemphigus sera. Protein extracts from the culture were analyzed by Western blotting using anti-Dsg3 antibodies and anti-caspase-8 Ab. Vinculin was used as internal control. (FIG. 12A).

keratinocytes [2] = test: Pemphigus sera-induced cell detachment (acantholysis) of confluent keratinocytes; assay type: cell-based, human; details: pretreatment with Z-IETD-FMK (100 μM for 30 min) or NOK2 15 μg/ml, then sera 72 hrs; FIG. 12B
keratinocytes [3] = test: Treatment of keratinocytes with increasing amounts of FasL, Western blotting with anti-Dsg1 and anti-Dsg3; assay type: cell-based, human; details: FasL 0.1, 10, 100 ng/ml for 72 hrs; FIG. 9
Method: Protein extracts from the culture were analyzed by Western blotting using anti-Dsg1 and anti-Dsg3 antibodies. β-actin was used as internal control. These doses are consistent with the ones detected in pemphigus sera (FIG. 9).

| Molecule | pemphigus sera-induced keratinocyte apoptosis (TUNEL staining) (human keratinocytes) | caspase-8 activation by untreated pemphigus sera (keratinocytes [1]) | dsg cleavage by untreated pemphigus sera (keratinocytes [1]) | cell detachment (i.e. acantholysis) by untreated pemphigus sera (keratinocytes [2]) | cleavage of dsgs (Dsg1, Dsg3) by FasL (keratinocytes [3]) |
| --- | --- | --- | --- | --- | --- |
| CC[C@H](C)[C@H](NC(=O)OCc1ccccc1)C(=O)N[C@@H](CCC(=O)OC)C(=O)N[C@H](C(=O)N[C@@H](CC(=O)OC)C(=O)CF)[C@@H](C)O [Z-IETD-FMK] (Cbz-IE(OMe)TD(OMe)-CH2F) | partially prevented | prevents both caspase-8 activation and dsg cleavage | prevents both caspase-8 activation and dsg cleavage | prevented |  |
| B1 |  |  |  |  | cleaved dsgs in a dose-dependent manner |
